Counter-ions that a name gives are not always drawn.
Legend:
[1] = test system: amnesia induced by electric shock; assay: Protective action against amnesia induced by electric shock in male mice; type: in vivo; details: vs propanolol and vincamine; 3 administrations at 24 h intervals, FIGS. 1-5
Text: 1. Protective action against amnesia in male mice A modification of the method of Taber and Banuazizi (Psychopharmacol. 9, 382-91, 1966) was employed. Mice are taught to remain seated in a small compartment of a test cage and not to move into the larger compartment in which an electric shock to the foot were previously received. If a convulsive electric shock is applied to a mouse after it has been so taught, it develops amnesia and forgets the previous experience (the shock to its foot in the larger compartment),and moves from the smaller compartment into the larger compartment. By pre-treating the animals with a test substance, it is possible to determine whether these substances have any protective action against the amnesia produced. Each test substance is administered to the particular animal 3 times at intervals of 24 hours, the last administration being 1 hour before the first test. Two groups are formed for each test; a control group with amnesia and a pre-treated group. For each test group, the average value of the times which have elapsed befoe the barrier is crossed on the 2nd day is calculated. This time is taken as a criterion for the learning capacity.

[2] = test system: 7-minute complete cerebral ischaemia; assay: Restricted circulation and mortality after a transient total cerebral ischaemia (experimental apoplexy); type: in vivo
Text: Restricted circulation and mortality after a transient total cerebral ischaemia ("experimental apoplexy")
A 7-minute complete cerebral ischaemia is caused in curarized cats by inflating a collar placed around the neck.

cerebral blood flow [3] = assay: Increase in the cerebral blood flow in cats (133 xenon clearance); details: for increase the cerebral blood flow (in words) / activity on cerebral blood flow (in words): cats; for increase the cerebral blood flow (in words): Tables 1 and 2, FIGS. 6A, 6B and 7; for action on cerebral blood flow at lower doses vs comparison substances: intravenous administration; for activity on cerebral blood flow (in words): peroral
Text: (§1) Increase in the cerebral blood flow in cats and dogs Cats (1.8-3.0 kg) and dogs (18-25 kg) of both sexes are rendered analgetic with fentanyl and curarized.

in vivo = details: mouse
cerebral blood flow [4] = assay: Increase in the cerebral blood flow in dogs (133 xenon clearance); type: in vivo; details: FIGS. 6A, 6B and 7
Text: as §1

Compound	protective action against amnesia induced by electric shock [1]	restriction in the cerebral blood flow after a 7-minute cerebral ischaemia ([2]; cats, pretreated 50 mg/kg perorally)	mortality after 7-minute cerebral ischaemia (cats died) ([2]; pretreated 50 mg/kg perorally, 94% of controls died within 48 hours, significant)	increase the cerebral blood flow (in words) (cerebral blood flow [3])	action on cerebral blood flow at lower doses vs comparison substances (cerebral blood flow [3])	activity on cerebral blood flow (in words) (cerebral blood flow [3]; at 50 and 25 mg/kg)	LD50 (in vivo; iv)	LD50 (in vivo; po)	increase the cerebral blood flow (in words) (cerebral blood flow [4])	LD50 (in vivo; iv, mice, intravenously)	LD50 (in vivo; po, mice, orally)	activity on cerebral blood flow (in words) (cerebral blood flow [3]; 50 mg/kg)	activity in the experimental apoplexy test (in words) ([2]; cats)
C/C=C/c1ccc(OCC)c(OCC(O)CNC(c2ccccc2)c2ccccc2)c1 (stereo not drawn) [Compound A, 1-(2-ethoxy-5-trans-propenylphenoxy)-2-hydroxy-3-diphenylmethylaminopropane hydrochloride]	considerably more effective	no restriction	33%	significantly increase	stronger than that of the comparison substances	distinct action	80 mg/kg	> 2000 mg/kg	significantly increase				
C=CCc1ccc(OCC(O)CNC(c2ccccc2)c2ccccc2)c(OC)c1.Cl (centres unmarked) [Compound B, 1-(2-methoxy-4-allylphenoxy)-2-hydroxy-3-diphenylmethylaminopropane hydrochloride]	considerably more effective			significantly increase	stronger than that of the comparison substances	distinct action			significantly increase	43 mg/kg	450 mg/kg		
C/C=C/c1ccc(OCC)c(OCC(O)CNC2c3ccccc3-c3ccccc32)c1 (stereo not drawn) [Compound C, 1-(2-ethoxy-5-trans-propenylphenoxy)-2-hydroxy-3-(9-fluorenylamino)-propane]				significantly increase	stronger than that of the comparison substances	distinct action			significantly increase	85 mg/kg	> 2000 mg/kg		
OC(CNC(c1ccccc1)c1ccccc1)COc1ccc(Cl)c(Cl)c1 (centres unmarked) [Compound D, 1-(3,4-dichlorophenoxy)-2-hydroxy-3-diphenylmethylaminopropane]	considerably more effective			significantly increase	stronger than that of the comparison substances	distinct action			significantly increase	76 mg/kg	> 2000 mg/kg		
CN(C)CCCOC1(Cc2ccccc2)CCCCCC1 [bencyclan, reference compound]										33 mg/kg	> 2000 mg/kg	inactive	
CC[C@]12CCCN3CCc4c(n(c5ccccc45)[C@@](O)(C(=O)OC)C1)[C@@H]32 [vincamine, reference compound]										95 mg/kg	460 mg/kg		inactive

From patent US4110472A, “Derivatives of 1-(disubstituted phenoxy)-3-amino-2-hydroxypropanes” (Bayer Aktiengesellschaft, priority 1975, dated 1978)
